Experiments:
CAMKK2 mRNA = assay: Expression of AR target genes (qRT-PCR) in 22Rv1: CAMKK2; type: cell-based; settings: 22Rv1, 1 μM, 48h; relative to vehicle control (DMSO)
Method: (§1) The prostate cancer cell line 22Rv1 was treated for 48h with 1 μM Example compound 1, 1/1, 2/1, 2/2, 2/3, 2/4, 2/5, 2/6, 2/7, 2/8, 2/9 and 2/10 and reference compounds SR2211 and XY018. RNA was extracted using the RNA isolation kit XS (Macherey-Nagel) and following the manufacture's manual. RNA quantity was measured with the Nanodrop before reverse transcription using Superscript II (Invitrogen #100004925). For the quantitative real-time PCR with SYBR-Green (Qiagen #204074), the following primers were used:
(§2) qRT-PCR was performed using SYBR-Green (Qiagen #204074) reagents in a PCR cycler (Gorbett Research) Rotor Gene RG3000 with the following program: denaturation for 5′ at 95° C.; 40 cycles of 20″ at 95° C. and 15″ at 60° C.″ and at the end of the last cycle, the melting temperature of the products was determined by gradually increasing from 60° C. to 99° C. CT values from all samples were normalized to reference (housekeeping) genes using the mean CT value of the GAPDH and YWHAZ (reference genes). Next the values are put relative to the untreated control (vehicle/DMSO).

IFNγ = assay: Cytokine assay, human PBMC stimulated with PHA: IFNγ; type: cell-based; settings: PHA-activated, 48 hours, read-out: IFNγ inhibition (IC50 range)
Method: (§3) Peripheral blood mononuclear cells (PBMC) from healthy human donors were purified using Accuspin™ System-Histopaque-1077 (Sigma) according to the protocol recommended by the manufacturer. Purified PBMC were then washed twice with phosphate-buffered saline (PBS) and resuspended in RPMI1640 culture medium supplemented with 10% dialyzed heat inactivated fetal calf serum, 1.5 mM L-glutamine, 100 U penicillin/mL and […] streptomycin/mL (all from PAN Biotech, Aidenbach, Germany). For stimulation, PBMC were seeded at 1×10^5 cells/well, activated with 2 gg/mL phytohaemagglutinin (PHA, Sigma) and incubated with the test compounds for 48 hours. IL-17A, IL-17F and INFγ were then determined in the culture supernatant using a Luminex BioPlex system, following the manufacturer's instructions (BioRad, Munich, Germany). To determine the IC50, compounds were titrated semilogarithmically.
(§4) Cytokines were determined in the aforementioned culture supernatant using the following methods: IL-17A was measured using the human homodimer IL-17A ELISA Ready Set Go Kit from cBioscience (Frankfurt, Germany); IL-17F using the human IL-17F ELI-Pair from Holzel Diagnostica GmbH (K51n, Germany); and IFNγ using the OptEIA human IFN-g ELISA from BD Bioscience (Heidelberg, Germany), all following the manufacturer's instructions.

KLK2 mRNA = assay: Expression of AR target genes (qRT-PCR) in 22Rv1: KLK2; type: cell-based; settings: 22Rv1, 1 μM; for mrna remaining at 1 µM: Homo sapiens, 48h, relative to vehicle control (DMSO)
Method: as §1, §2

AR-V7 protein = assay: Androgen receptor protein expression (western blot) in 22Rv1: AR-V7; type: cell-based, human; settings: 22Rv1, 6 μM, 48 h; for AR-V7 protein level: western blot quantification
Method: (§5) After 48 h, cell were lysed using cell extraction buffer (Life Technologies #FNN0011) for western blot. […] The membrane is then incubation for 1 hour in blocking buffer (5% milk in 20 mM Tris, 150 mM NaCl, pH 7.5, 0.05% Tween 20 [TBS-T]). After this incubation, the primary antibody is added and incubated overnight at 4° C. After washing, the membrane was incubated with the secondary antibody for 1 h. Visualization of the bands was performed using the femto maximum sensitivity substrate reagent and the luminescence signal recorded with the Fusion FX7 (Vilber). For protein quantification, InageJ was used.

[1] = tested on: prostate cancer cell line DU145; assay: Oncolead sulforhodamin B growth inhibition, DU145; type: cell-based; settings: Homo sapiens, DU-145; sulforhodamin B assay; 72 and 120 h treatment; read-out: GI50 range DU145
Method: (§6) Cell growth was assessed by measuring protein content using sulforhodamin B. Growth inhibition was calculated by (TCMD−T0)/TNCT72h−T0)*100% with TCMD is the tumor growth at 72 h with the respective compound concentration. To is the protein content of the cell line before treatment and TNCT72h is the tumor growth of the DMSO control.

AR-V7 mRNA = assay: Androgen receptor RNA level expression (qRT-PCR) in 22Rv1: AR-V7; type: cell-based; settings: 22Rv1, 1 μM, 48 h; for mrna remaining at 1 µM: Homo sapiens, normalized to untreated control (vehicle/DMSO)
Method: (§7) The prostate cancer cell line 22Rv1 was treated for 48 h with 1 μM Example compound 1, 1/1, 1/2, 2/1, 2/2, 2/3, 2/4, 2/5, 2/6, 2/7, 2/8, 2/9 and 2/10 and the reference compounds SR2211 and XY018 (Nat. Med. 2016; 22:488). RNA was extracted using the RNA isolation kit XS (Macherey-Nagel) and following the manufacture's manual. RNA quantity was measured with the Nanodrop before reverse transcription using Superscript II (Invitrogen #100004925). For the quantitative real-time PCR with SYBR-Green (Qiagen #204074), the following primers were used: AR forward-ACATCAAGGAACTCGATCGTATCATTGC and reverse-TTGGGCACTTGCACAGAGAT, AR-V7: forward-CCATCTTGTCGTCTTCGGAAATGTTATGAAGC and reverse-TTTGAATGAGGCAAGTCAGCCTTTCTT. The qRT-PCR proceeded as follows: denaturation for 5 min 95° C.; 40 cycles of “20 sec at 95° C. and 15 sec at 60° C.” and at the end of the last cycle, the melting temperature of the products was determined by gradually increasing it from 60° C. to 99° C. CT values from all samples were normalized to two different reference (housekeeping) genes using the mean CT value of the GAPDH and YWHAZ (reference genes). Next the values are normalized to the untreated control (vehicle/DMSO).

AR-FL protein = assay: Androgen receptor protein expression (western blot) in 22Rv1: AR-FL; type: cell-based, human; settings: 22Rv1, 6 μM, 48 h; for AR-FL protein level: western blot quantification
Method: as §5

[2] = tested on: prostate cancer cell line LNCAP; assay: Oncolead sulforhodamin B growth inhibition, LNCAP; type: cell-based; settings: Homo sapiens, sulforhodamin B assay, 72 and 120 h treatment, read-out: GI50 range LNCAP
Method: as §6

IL-17F = assay: Cytokine assay, human PBMC stimulated with PHA: IL-17F; type: cell-based; settings: PHA-activated, 48 hours, read-out: IL-17F inhibition (IC50 range)
Method: as §3, §4

[3] = tested on: full length AR (AR-FL) mRNA; assay: Androgen receptor RNA level expression (qRT-PCR) in 22Rv1: AR-FL; type: cell-based; settings: 22Rv1, 1 μM, 48 h; for mrna remaining at 1 µM: Homo sapiens, normalized to untreated control (vehicle/DMSO)
Method: as §7

IL-17A = assay: Cytokine assay, human PBMC stimulated with PHA: IL-17A; type: cell-based; settings: PHA-activated, 48 hours, read-out: IL-17A inhibition (IC50 range)
Method: as §3, §4

[4] = tested on: prostate cancer cell line 22RV1; assay: Oncolead sulforhodamin B growth inhibition, 22RV1; type: cell-based; settings: Homo sapiens, sulforhodamin B assay, 72 and 120 h treatment, read-out: GI50 range 22RV1
Method: as §6

IC50 (IFNγ) [nM]	GI50 [1] [nM]	AR-V7 mRNA expression (AR-V7 mRNA)	GI50 [2] [nM]	IC50 (IL-17F) [nM]	full length AR (AR-FL) mRNA expression [3]	IC50 (IL-17A) [nM]	GI50 [4] [nM]	SMILES	CAMKK2 mRNA expression (CAMKK2 mRNA)	KLK2 mRNA level expression (KLK2 mRNA; 48 h)	mrna remaining at 1 µM (KLK2 mRNA) [%]	AR-V7 protein levels (AR-V7 protein)	AR-V7 protein level (AR-V7 protein)	mrna remaining at 1 µM (AR-V7 mRNA) [%]	AR-FL protein levels (AR-FL protein)	AR-FL protein level (AR-FL protein)	mrna remaining at 1 µM [3] [%]
< 25	< 25	strong reduction	100 to 5000	< 25	strong reduction	< 25	< 25	CC(C)(O)CCn1ncc(-c2onc(-c3c(F)cccc3Cl)c2-c2ncccn2)c1C(F)(F)F [2/8]	1.149	strong inhibition	60.8	strong reduction	0.309	34.8	strong reduction	0.421	44.9
< 25	< 25	strong reduction	25 to 100	< 25	strong reduction	< 25	< 25	COC(=O)c1c(-c2c(F)cccc2Cl)noc1-c1cnn(-c2cccc(Cl)c2)c1C(F)(F)F [Example 1, Methyl 3-(2-chloro-6-fluorophenyl)-5-(1-(3-chlorophenyl)-5-(trifluoromethyl)-1H-pyrazol-4-yl)isoxazole-4-carboxylate]	0.884		59.8	strong reduction	0.368	37	strong reduction	0.474	44.2
< 25	< 25	strong reduction	< 25	< 25	strong reduction	< 25	< 25	Fc1cccc(Cl)c1-c1noc(-c2cnn(-c3cccc(Cl)c3)c2C(F)(F)F)c1-c1nccs1 [Example 1/1]	0.883		74.2	strong reduction	0.323	39.5	strong reduction	0.482	43.6

— US20240368145A1, “METHODS FOR TREATING CANCER” (IMMUNIC AG, priority 2021, published 2024)
